From article PMC7914897, “Cytotoxic Potential of a-Azepano- and 3-Amino-3,4-SeCo-Triterpenoids” (International Journal of Molecular Sciences, 2021)
Where two headings read alike, the source gives them in different places.

What was measured:
[1] = system: OVCAR-3 (Ovarian cancer); assay: cells; conditions: Homo sapiens; for GI50: OVCAR-3
[2] = system: Colon Cancer subpanel; assay: NCI-60 screen, subpanel; conditions: Homo sapiens; for IC (TGI): 48 h, read-out: TGI MG_MID; for GI50: read-out: GI50 MG_MID
[3] = system: CNS cancer subpanel; assay: NCI-60 screen, subpanel; conditions: Homo sapiens; for IC (TGI): 48 h, read-out: TGI MG_MID; for GI50: read-out: GI50 MG_MID
[4] = system: Ovarian Cancer subpanel; assay: NCI-60 screen, subpanel; conditions: Homo sapiens; for IC (TGI): 48 h, read-out: TGI MG_MID; for GI50: read-out: GI50 MG_MID; for CC50: read-out: LC50 MG_MID
[5] = system: Renal Cancer subpanel; assay: NCI-60 screen, subpanel; conditions: Homo sapiens; for IC (TGI): 48 h, read-out: TGI MG_MID; for GI50: read-out: GI50 MG_MID; for CC50: read-out: LC50 MG_MID
[6] = system: CCRF-CEM (Leukemia); assay: NCI-60 screen (SRB, 48 h); conditions: Homo sapiens; for CC50: read-out: LC50
[7] = system: MOLT-4 (Leukemia); assay: NCI-60 screen (SRB, 48 h); conditions: Homo sapiens; for GI50: MOLT-4
[8] = system: EKVX (NSC lung cancer); assay: NCI-60 screen (SRB, 48 h); conditions: Homo sapiens; for IC (TGI): 48 h, read-out: TGI
[9] = system: HOP-62 (NSC lung cancer); assay: NCI-60 screen (SRB, 48 h); conditions: Homo sapiens; for GI50: HOP-62; for IC (TGI): HOP-62, 48 h, read-out: TGI
[10] = system: HOP-92 (NSC lung cancer); assay: NCI-60 screen (SRB, 48 h); conditions: Homo sapiens; for GI50: HOP-92; for IC (TGI): HOP-92, 48 h, read-out: TGI
[11] = system: NCI-H226 (NSC lung cancer); assay: NCI-60 screen (SRB, 48 h); conditions: Homo sapiens; for GI50: NCI-H226; for IC (TGI): NCI-H226, 48 h, read-out: TGI
[12] = system: NCI-H322M (NSC lung cancer); assay: NCI-60 screen (SRB, 48 h); conditions: Homo sapiens; for IC (TGI): 48 h, read-out: TGI
[13] = system: COLO 205 (Colon cancer); assay: NCI-60 screen (SRB, 48 h); conditions: Homo sapiens; for GI50: COLO 205; for IC (TGI): COLO 205, 48 h, read-out: TGI
[14] = system: HT29 (Colon cancer); assay: NCI-60 screen (SRB, 48 h); conditions: Homo sapiens; for GI50: HT-29; for IC (TGI): HT-29, 48 h, read-out: TGI
[15] = system: SW-620 (Colon cancer); assay: NCI-60 screen (SRB, 48 h); conditions: Homo sapiens; for GI50: SW-620
[16] = system: SF-295 (CNS cancer); assay: NCI-60 screen (SRB, 48 h); conditions: Homo sapiens; for GI50: SF-295; for IC (TGI): SF-295, 48 h, read-out: TGI
[17] = system: M14 (Melanoma); assay: NCI-60 screen (SRB, 48 h); conditions: Homo sapiens; for GI50: M14; for IC (TGI): M14, 48 h, read-out: TGI
[18] = system: SK-MEL-28 (Melanoma); assay: NCI-60 screen (SRB, 48 h); conditions: Homo sapiens; for GI50: SK-MEL-28
[19] = system: OVCAR-5 (Ovarian cancer); assay: NCI-60 screen (SRB, 48 h); conditions: for GI50 / IC (TGI): Homo sapiens; for GI50: OVCAR-5; for IC (TGI): OVCAR-5, 48 h, read-out: TGI
[20] = system: SK-OV-3 (Ovarian cancer); assay: NCI-60 screen (SRB, 48 h); conditions: Homo sapiens; for GI50: SK-OV-3; for IC (TGI): SK-OV-3, 48 h, read-out: TGI; for CC50: SK-OV-3, read-out: LC50
[21] = system: A498 (Renal cancer); assay: NCI-60 screen (SRB, 48 h); conditions: Homo sapiens; for GI50: A498; for IC (TGI): A498, 48 h, read-out: TGI; for CC50: A498, read-out: LC50
[22] = system: CAKI-1 (Renal cancer); assay: NCI-60 screen (SRB, 48 h); conditions: for GI50 / IC (TGI) / CC50: Homo sapiens; for GI50: CAKI-1; for IC (TGI): CAKI-1, 48 h, read-out: TGI; for CC50: CAKI-1, read-out: LC50
[23] = system: UO-31 (Renal cancer); assay: NCI-60 screen (SRB, 48 h); conditions: Homo sapiens; for GI50: UO-31; for IC (TGI): UO-31, 48 h, read-out: TGI
[24] = system: DU-145 (Prostate cancer); assay: NCI-60 screen (SRB, 48 h); conditions: Homo sapiens; for GI50: DU-145; for IC (TGI): DU-145, 48 h, read-out: TGI
[25] = system: T-47D (Breast cancer); assay: NCI-60 screen (SRB, 48 h); conditions: Homo sapiens, T47D; for IC (TGI): 48 h, read-out: TGI
[26] = system: panel of approximately 60 cancer cell lines; assay: NCI-60 screen (SRB, 48 h), full panel; conditions: for activity at 10 µM / IC (TGI): 48 h; for IC (TGI): read-out: TGI MG_MID60, average over all cell lines
[27] = Homo sapiens, read-out: Mean Growth, %
[28] = Homo sapiens, read-out: Range of Growth, %
[29] = Homo sapiens, read-out: GI50 MG_MID60
[30] = Homo sapiens, read-out: GI50 against all human tumor cell lines

C=C(C)[C@@H]1CCC=C2CC[C@]3(C)[C@H](CC[C@@H]4[C@@]5(C)CCCNC(C)(C)[C@@H]5CC[C@]43C)[C@H]21 [Compound 8]
GI50 [1]: 1.79 µM
IC (TGI) ([1]; OVCAR-3, 48 h, read-out: TGI): 3.4 µM
IC (TGI) [2]: 3.02 µM
GI50 [2]: 1.51 µM
CC50 ([2]; read-out: LC50 MG_MID): 5.87 µM
IC (TGI) [3]: 3.31 µM
GI50 [3]: 1.79 µM
CC50 ([3]; read-out: LC50 MG_MID): 5.97 µM
IC (TGI) [4]: 3.5 µM
GI50 [4]: 1.84 µM
CC50 [4]: 6.78 µM
IC (TGI) [5]: 3.34 µM
GI50 [5]: 1.79 µM
CC50 [5]: 6.18 µM
GI50 [6]: 2.27 µM
IC (TGI) ([6]; 48 h, read-out: TGI): 5.63 µM
CC50 [6]: > 100 µM
GI50 [7]: 1.09 µM
GI50 [8]: 1.66 µM
IC (TGI) [8]: 3.21 µM
GI50 [9]: 1.82 µM
IC (TGI) [9]: 3.41 µM
CC50 ([9]; HOP-62, read-out: LC50): 6.38 µM
GI50 [10]: 1.37 µM
IC (TGI) [10]: 2.77 µM
CC50 ([10]; HOP-92, read-out: LC50): 5.61 µM
GI50 [11]: 1.97 µM
IC (TGI) [11]: 3.81 µM
GI50 [12]: 1.73 µM
IC (TGI) [12]: 3.14 µM
CC50 ([12]; read-out: LC50): 5.7 µM
GI50 [13]: 1.38 µM
IC (TGI) [13]: 2.79 µM
CC50 ([13]; COLO 205, read-out: LC50): 5.64 µM
GI50 [14]: 1.2 µM
IC (TGI) [14]: 2.58 µM
CC50 ([14]; HT-29, read-out: LC50): 5.56 µM
GI50 [15]: 1.92 µM
IC (TGI) ([15]; SW-620, 48 h, read-out: TGI): 3.75 µM
GI50 [16]: 1.81 µM
IC (TGI) [16]: 3.26 µM
CC50 ([16]; SF-295, read-out: LC50): 5.88 µM
GI50 [17]: 1.89 µM
IC (TGI) [17]: 3.38 µM
GI50 [18]: 1.81 µM
IC (TGI) ([18]; SK-MEL-28, 48 h, read-out: TGI): 3.35 µM
CC50 ([18]; SK-MEL-28, read-out: LC50): 6.18 µM
GI50 [19]: 1.75 µM
IC (TGI) [19]: 3.32 µM
GI50 [20]: 1.81 µM
IC (TGI) [20]: 3.37 µM
CC50 [20]: 6.28 µM
GI50 [21]: 2.03 µM
IC (TGI) [21]: 3.79 µM
CC50 [21]: 7.08 µM
Growth % of the Most Sensitive Cell Lines ([22]; CAKI-1, 1 dose 10 µM): −92.49%
GI50 [22]: 1.81 µM
IC (TGI) [22]: 3.22 µM
CC50 [22]: 5.73 µM
GI50 [23]: 1.52 µM
IC (TGI) [23]: 2.89 µM
CC50 ([23]; UO-31, read-out: LC50): 5.52 µM
GI50 [24]: 1.77 µM
IC (TGI) [24]: 3.33 µM
CC50 ([24]; DU-145, read-out: LC50): 6.26 µM
GI50 [25]: 1.72 µM
IC (TGI) [25]: 3.47 µM
CC50 ([25]; read-out: LC50): 7 µM
Positive Cytostatic Effect (cell lines with percent growth 0 to 50 / total) ([26]; 1 dose 10 µM): 7/60
Positive Cytotoxic Effect (cell lines with percent growth < 0 / total) ([26]; 1 dose 10 µM): 49/60
number of cancer cell lines the compound was active against ([26]; 1 dose 10 µM): 55 cell lines
activity at 10 µM [26, 27]: -46.7%
activity at 10 µM [26, 28]: -99.5 to 75.9%
IC (TGI) ([26]; Homo sapiens): 3.53 µM
GI50 [26, 29]: 1.73 µM
GI50 [26, 30]: < 3 µM
GI50 ([26]; Homo sapiens, read-out: GI50 against the most sensitive cell lines): 0.2 to 0.94 µM

C=C(C)[C@@H]1CC[C@]2(COS(=O)(=O)c3ccc(C)cc3)CC[C@]3(C)[C@@H](CC[C@@H]4[C@@]5(C)CCCNC(C)(C)[C@@H]5CC[C@]43C)[C@@H]12 [Compound 12]
GI50 [1]: 1.67 µM
IC (TGI) [2]: 3.37 µM
GI50 [2]: 1.73 µM
IC (TGI) [3]: 3.49 µM
GI50 [3]: 1.79 µM
IC (TGI) [4]: 3.37 µM
GI50 [4]: 1.79 µM
CC50 [4]: 5.82 µM
IC (TGI) [5]: 3.26 µM
GI50 [5]: 1.76 µM
CC50 [5]: 5.87 µM
GI50 [6]: 2.28 µM
CC50 [6]: > 100 µM
GI50 [7]: 1.62 µM
IC (TGI) ([7]; MOLT-4, 48 h, read-out: TGI): 3.59 µM
GI50 [8]: 1.62 µM
IC (TGI) [8]: 3.11 µM
GI50 [9]: 1.65 µM
IC (TGI) [9]: 3.13 µM
GI50 [10]: 1.54 µM
IC (TGI) [10]: 3.01 µM
GI50 [11]: 1.81 µM
IC (TGI) [11]: 3.63 µM
GI50 [12]: 1.76 µM
IC (TGI) [12]: 3.16 µM
GI50 [13]: 1.75 µM
IC (TGI) [13]: 3.24 µM
GI50 [14]: 1.93 µM
IC (TGI) [14]: 3.5 µM
GI50 [15]: 1.83 µM
GI50 [16]: 1.6 µM
IC (TGI) [16]: 3.01 µM
GI50 [17]: 1.83 µM
IC (TGI) [17]: 3.3 µM
GI50 [18]: 2.15 µM
GI50 [19]: 1.64 µM
IC (TGI) [19]: 3.13 µM
Growth % of the Most Sensitive Cell Lines ([19]; OVCAR-5, 1 dose 10 µM): −87.72%
GI50 [20]: 1.87 µM
IC (TGI) [20]: 3.3 µM
CC50 [20]: 5.82 µM
GI50 [21]: 1.63 µM
IC (TGI) [21]: 3.14 µM
CC50 [21]: 6.04 µM
GI50 [22]: 1.74 µM
IC (TGI) [22]: 3.15 µM
CC50 [22]: 5.71 µM
GI50 [23]: 1.64 µM
IC (TGI) [23]: 3.04 µM
GI50 [24]: 1.77 µM
IC (TGI) [24]: 3.3 µM
GI50 [25]: 1.57 µM
IC (TGI) [25]: 3.15 µM
Positive Cytostatic Effect (cell lines with percent growth 0 to 50 / total) ([26]; 1 dose 10 µM): 11/60
number of cancer cell lines the compound was active against ([26]; 1 dose 10 µM): 39 cell lines
activity at 10 µM [26, 27]: -3.21%
activity at 10 µM [26, 28]: -94.4 to 98.7%
IC (TGI) ([26]; Homo sapiens): 3.43 µM
GI50 [26, 29]: 1.77 µM
GI50 [26, 30]: < 3 µM
CC50 ([26]; Homo sapiens, read-out: LC50 MG_MID60, average over all cell lines): 5.84 µM
